Earlier results as cited in patent publication US20250101519A1, “USE OF HYPOXIA-INDUCIBLE FACTOR 1 ALPHA AS MARKER IN DEPRESSION RECURRENCE DIAGNOSIS” (NINGBO UNIVERSITY, priority 2022, published 2025).

Legend:
[1] = in humans
[2] = in mice; other references report various values

metabolic clearance half-life [1]: 96 to 140 h
clearance half-life [2]: 9 h
Compound: CNCCC(Oc1ccc(C(F)(F)F)cc1)c1ccccc1 (centres unmarked) [fluoxetine]
